Reference: patent US20240254129A1, “HETEROCYCLIC COMPOUNDS AND USES THEREOF” (Kumquat Biosciences Inc., priority 2021, published 2024)
Read-outs that look alike come from different tables or passages of the source.

Legend:
[1] = target: GST-tagged K-Ras mutant / His-tagged hSOS1 (Homo sapiens, UniProt P01116); experiment: HTRF assay, K-Ras mutant / SOS1 interaction; type: binding; settings: read-out: IC50 against mutant Kras
How it was run: (§1)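 Tagged proteins: GST-K-Ras (wt or mutant), His-hSOS1; labels anti-GST-Eu/anti-6His-XL665; HEPES pH 7.4 buffer with DTT, BSA, Igepal. Read ≥10 min post-mix at ex 337 nm; IC50 from ratiometric data, duplicates.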

wildtype Kras / hSOS1 = target: T1, wildtype Kras / hSOS1 (Homo sapiens, UniProt P01116); experiment: HTRF assay, wildtype Kras / SOS1 interaction; type: binding; settings: read-out: IC50 against wildtype Kras
T1 construct: made in house; host or cells: E. coli BL21 (DE3)
How it was run: as §1

[2] = compound nos. 102-196, general methodology of example 5
[3] = compound nos. 201-213, general methodology of example 5

T1 sequence (P01116 1-188 isoform P01116-2): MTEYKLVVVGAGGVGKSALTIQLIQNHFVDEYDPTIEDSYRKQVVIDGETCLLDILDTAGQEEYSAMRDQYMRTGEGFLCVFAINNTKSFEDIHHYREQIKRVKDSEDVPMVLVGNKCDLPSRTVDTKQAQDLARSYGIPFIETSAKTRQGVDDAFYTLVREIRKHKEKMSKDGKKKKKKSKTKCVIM
Chain of GST-tagged K-Ras mutant / His-tagged hSOS1 (P01116 whole entry G12D, form open): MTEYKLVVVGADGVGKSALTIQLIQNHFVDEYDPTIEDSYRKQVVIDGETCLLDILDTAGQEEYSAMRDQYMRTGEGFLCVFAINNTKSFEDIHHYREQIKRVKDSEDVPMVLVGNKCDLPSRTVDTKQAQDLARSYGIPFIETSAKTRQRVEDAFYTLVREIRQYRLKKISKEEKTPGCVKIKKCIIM

Row | SMILES | IC50 ([1]; compound nos. 401-703) [nM] | IC50 (wildtype Kras / hSOS1; compound nos. 401-703) [nM] | also measured
1 | Nc1nc2c(-c3c(Cl)cc4c(N5[C@@H]6CC[C@H]5CC(F)(F)C6)nc(OC[C@@]56CCCN5C[C@H](F)C6)nc4c3F)ccc(F)c2s1 [Compound 303, 4-(6-chloro-4-((1R,5S)-3,3-difluoro-8-azabicyclo[3.2.1]-octan-8-yl)-8-fluoro-2-(((2R,7aS)-2-fluorotetra-hydro-1H-pyrrolizin-7a(5H)-yl)methoxy)quinazolin-7-yl)-7-fluorobenzo[d]thiazol-2-amine] | – | – | IC50 ([1]; compound nos. 301-306): > 1500 nM; IC50 (wildtype Kras / hSOS1; compound nos. 301-306): < 1500 nM
2 | N#CCN1C2CCC1CN(c1nc(OC[C@@]34CCCN3C[C@H](F)C4)nc3c(F)c(-c4ccc(F)c5sc(N)c(C#N)c45)c(Cl)cc13)C2 [Compound 570, 2-amino-4-(6-chloro-4-((1R,5S)-8-(cyanomethyl)-3,8-diazabicyclo[3.2.1]-octan-3-yl)-8-fluoro-2-(((2R,7aS)-2-fluorotetra-hydro-1H-pyrrolizin-7a(5H)-yl)methoxy)quinazolin-7-yl)-7-fluorobenzo[b]thio-phene-3-carbonitrile] | < 500 | > 500 | –
3 | Nc1nc2c(-c3c(Cl)cc4c(N5CC6CCC(CC6)C5)nc(OC[C@@]56CCCN5C[C@H](F)C6)nc4c3F)ccc(F)c2s1 [Compound 690, 4-(4-(3-azabicyclo[3.2.2]-nonan-3-yl)-6-chloro-8-fluoro-2-(((2R,7aS)-2-fluorotetrahydro-1H-pyrrol-izin-7a(5H)-yl)methoxy)-quinazolin-7-yl)-7-fluoro-benzo[d]thiazol-2-amine] | < 500 | > 500 | –
4 | Nc1nc2c(-c3c(Cl)cc4c(N5CCNCC(F)C5)nc(OC[C@@]56CCCN5C[C@H](F)C6)nc4c3F)ccc(F)c2s1 (stereo partly drawn) [Compound 164, 4-(6-chloro-8-fluoro-4-(6-fluoro-1,4-diazepan-1-yl)-2-(((2R,7aS)-2-fluorotetra-hydro-1H-pyrrolizin-7a(5H)-yl)methoxy)quinazolin-7-yl)-7-fluorobenzo[d]thiazol-2-amine] | – | – | IC50 [1, 2]: < 500 nM; IC50 (wildtype Kras / hSOS1; [2]): < 500 nM
5 | Fc1c(Br)c(Cl)cc2c(N3CC4CCC(C3)N4)nc(OC[C@@]34CCCN3C[C@H](F)C4)nc12 [Compound 479, 4-(3,8-diazabicyclo[3.2.1]-octan-3-yl)-7-bromo-6-chloro-8-fluoro-2-(((2R,7aS)-2-fluorotetra-hydro-1H-pyrrolizin-7a(5H)-yl)methoxy)quin-azoline] | > 500 | < 500 | –
6 | CN1CCC[C@H]1COc1nc(N2CCNCC(O)C2)c2cc(Cl)c(-c3cccc4sc(N)nc34)c(F)c2n1 (stereo partly drawn) [Compound 103, 1-(7-(2-aminobenzo[d]-thiazol-4-yl)-6-chloro-8-fluoro-2-(((S)-1-methyl-pyrrolidin-2-yl)methoxy)-quinazolin-4-yl)-1,4-diazepan-6-ol] | – | – | IC50 [1, 2]: < 500 nM; IC50 (wildtype Kras / hSOS1; [2]): < 500 nM
7 | N#Cc1c(N)sc2c(F)ccc(-c3c(Cl)cc4c(N5CCCOCC5)nc(OC[C@@]56CCCN5C[C@H](F)C6)nc4c3F)c12 [Compound 598, 2-amino-4-(6-chloro-8-fluoro-2-(((2R,7aS)-2-fluorotetrahydro-1H-pyrrol-izin-7a(5H)-yl)methoxy)-4-(1,4-oxazepan-4-yl)quin-azolin-7-yl)-7-fluorobenzo-[b]thiophene-3-carbonitrile] | < 500 | > 500 | –
8 | Nc1cc2cccc(-c3c(Cl)cc4c(N5CC6CCC(C5)N6)nc(OCC56CCCN5CCC6)nc4c3F)c2cn1 [Compound 618, 8-(4-(3,8-diazabicyclo-[3.2.1]octan-3-yl)-6-chloro-8-fluoro-2-((tetrahydro-1H-pyrrolizin-7a(5H)-yl)meth-oxy)quinazolin-7-yl)iso-quinolin-3-amine] | > 500 | > 500 | –
9 | N#Cc1c(N)sc2c(F)ccc(-c3c(Cl)cc4c(N5CCCS(=O)(=O)CC5)nc(OC[C@@]56CCCN5C[C@H](F)C6)nc4c3F)c12 [Compound 574, 2-amino-4-(6-chloro-4-(1,1-dioxido-1,4-thiazepan-4-yl)-8-fluoro-2-(((2R,7aS)-2-fluorotetrahydro-1H-pyrrol-izin-7a(5H)-yl)methoxy)-quinazolin-7-yl)-7-fluoro-benzo[b]thiophene-3-carbonitrile] | < 500 | > 500 | –
10 | N#Cc1c(N)sc2c(F)ccc(-c3c(Cl)cc4c(N5C[C@H]6CC[C@@H](C5)N6C5CCOCC5)nc(OC[C@@]56CCCN5C[C@H](F)C6)nc4c3F)c12 [Compound 679, 2-amino-4-(6-chloro-8-fluoro-2-(((2R,7aS)-2-fluorotetrahydro-1H-pyrrol-izin-7a(5H)-yl)methoxy)-4-((1R,5S)-8-(tetrahydro-2H-pyran-4-yl)-3,8-diaza-bicyclo[3.2.1]octan-3-yl)-quinazolin-7-yl)-7-fluoro-benzo[b]thiophene-3-carbonitrile] | < 500 | > 500 | –
11 | CN1CCC[C@H]1COc1nc(N2CCCNCC(F)(F)C2)c2cc(Cl)c(-c3cccc4sc(N)nc34)c(F)c2n1 [Compound 127, 4-(6-chloro-4-(3,3-difluoro-1,5-diazocan-1-yl)-8-fluoro-2-(((S)-1-methylpyrrolidin-2-yl)methoxy)quinazolin-7-yl)benzo[d]thiazol-2-amine] | – | – | IC50 [1, 2]: < 500 nM; IC50 (wildtype Kras / hSOS1; [2]): < 500 nM
12 | Nc1nc2c(-c3cc4c(=O)n(CCN5CCCC5)nc(N5C[C@H]6CC[C@@H](C5)N6)c4cc3Cl)ccc(F)c2s1 [Compound 404, 7-(2-amino-7-fluorobenzo[d]thiazol-4-yl)-4-((1R,5S)-3,8-diazabicyclo[3.2.1]octan-3-yl)-6-chloro-2-(2-(pyrrolidin-1-yl)ethyl)phthalazin-1(2H)-one] | > 500 | < 500 | –
13 | CN1CCC[C@H]1COc1nc(N2CCCC(O)CC2)c2cc(Cl)c(-c3cccc4sc(N)nc34)c(F)c2n1 (stereo partly drawn) [Compound 173, 1-(7-(2-aminobenzo[d]-thiazol-4-yl)-6-chloro-8-fluoro-2-(((S)-1-methyl-pyrrolidin-2-yl)methoxy)-quinazolin-4-yl)azepan-4-ol] | – | – | IC50 [1, 2]: < 500 nM; IC50 (wildtype Kras / hSOS1; [2]): < 500 nM
14 | CN1CCCC1CCn1nc(N2CC3CCC(C2)N3)c2ccc(-c3cc(O)cc4ccccc34)c(F)c2c1=O (stereo not drawn) [Compound 529, 4-(3,8-diazabicyclo[3.2.1]-octan-3-yl)-8-fluoro-7-(3-hydroxynaphthalen-1-yl)-2-(2-(1-methylpyrrolidin-2-yl)ethyl)phthalazin-1(2H)-one] | > 500 | > 500 | –
15 | CN1CCC[C@H]1COc1nc(N2CCCC(F)C(F)C2)c2cc(Cl)c(-c3cccc4sc(N)nc34)c(F)c2n1 (stereo partly drawn) [Compound 573, 4-(6-chloro-4-(3,4-difluoro-azepan-1-yl)-8-fluoro-2-(((S)-1-methylpyrrolidin-2-yl)methoxy)quinazolin-7-yl)-benzo[d]thiazol-2-amine] | < 500 | > 500 | –
16 | Nc1nc2c(-c3c(Cl)cc4c(N5C[C@H]6CCNCC[C@H]6C5)nc(OC[C@@]56CCCN5C[C@H](F)C6)nc4c3F)ccc(F)c2s1 [Compound 528, 4-(6-chloro-8-fluoro-2-(((2R,7aS)-2-fluorotetra-hydro-1H-pyrrolizin-7a(5H)-yl)methoxy)-4-((3aR,8aS)-octahydropyr-rolo[3,4-d]azepin-2(1H)-yl)quinazolin-7-yl)-7-fluorobenzo[d]thiazol-2-amine] | < 500 | > 500 | –
17 | Nc1nc2c(-c3c(Cl)cc4c(N5CC6CCC(C5)N6)nc(OC[C@@]56CCCN5C[C@H](F)C6)nc4c3F)cccc2cc1F [Compound 665, 8-(4-(3,8-diazabicyclo-[3.2.1]octan-3-yl)-6-chloro-8-fluoro-2-(((2R,7aS)-2-fluorotetrahydro-1H-pyrrol-izin-7a(5H)-yl)methoxy)-quinazolin-7-yl)-3-fluoro-quinolin-2-amine] | > 500 | > 500 | –
18 | Fc1ccc(-c2c(Cl)cc3c(N4CC5CCC(C4)N5)nc(OC[C@@]45CCCN4C[C@H](F)C5)nc3c2F)c2c1CCCC2 [Compound 689, 4-(3,8-diazabicyclo[3.2.1]-octan-3-yl)-6-chloro-8-fluoro-7-(4-fluoro-5,6,7,8-tetrahydronaphthalen-1-yl)-2-(((2R,7aS)-2-fluorotetra-hydro-1H-pyrrolizin-7a(5H)-yl)methoxy)quinazoline] | > 500 | > 500 | –
19 | Fc1c(-c2cccc3ccsc23)c(Cl)cc2c(N3CC4CCC(C3)N4)nc(OC[C@@]34CCCN3C[C@H](F)C4)nc12 [Compound 560, 7-(benzo[b]thiophen-7-yl)-4-(3,8-diazabicyclo[3.2.1]-octan-3-yl)-6-chloro-8-fluoro-2-(((2R,7aS)-2-fluorotetrahydro-1H-pyrrol-izin-7a(5H)-yl)methoxy)-quinazoline] | > 500 | > 500 | –
20 | Nc1nc2c(-c3c(Cl)cc4c(N5CCCCC(F)(F)C5)nc(OC[C@@]56CCCN5C[C@H](F)C6)nc4c3F)ccc(F)c2s1 [Compound 168, 4-(6-chloro-4-(3,3-difluoro-azepan-1-yl)-8-fluoro-2-(((2R,7aS)-2-fluorotetra-hydro-1H-pyrrolizin-7a(5H)-yl)methoxy)quinazolin-7-yl)-7-fluorobenzo[d]thiazol-2-amine] | – | – | IC50 [1, 2]: < 500 nM; IC50 (wildtype Kras / hSOS1; [2]): < 500 nM
21 | CN1[C@@H]2CC[C@H]1CN(c1nc(OC[C@@]34CCCN3C[C@H](F)C4)nc3c(F)c(-c4ccc(F)c5sc(N)nc45)c(Cl)cc13)C2 [Compound 205, 4-(6-chloro-8-fluoro-2-(((2R,7aS)-2-fluorotetra-hydro-1H-pyrrolizin-7a(5H)-yl)methoxy)-4-((1R,5S)-8-methyl-3,8-diazabicyclo[3.2.1]octan-3-yl)quinazolin-7-yl)-7-fluorobenzo[d]thiazol-2-amine] | – | – | IC50 [1, 3]: < 1500 nM; IC50 (wildtype Kras / hSOS1; [3]): < 1500 nM
